Experimental data from US7700581B2, “Cephalosporin compounds comprising a C3 thio-methyl moiety substituted with N-containing heterocyclic group, and a C7 thiourea acetamido group, their preparations and uses thereof” (Guangzhou Baiyunshan Pharmaceutical Co., Ltd., priority 2007, dated 2010).
In brackets after ≈: the same amount, converted by molar mass. Read-outs that look alike come from different tables or passages of the source.

What was measured:
[1] = system: Salmonella; assay: In vitro antibacterial activity test (MIC); assay type: cell-based; details: read-out: minimum inhibitory concentration (MIC)
Protocol: (§1) In vitro antibacterial activity test of the cephalosporin compounds disclosed herein using the common methods known in the art were conducted.

[2] = system: Enterococcus; assay: In vitro antibacterial activity test (MIC); assay type: cell-based; details: read-out: minimum inhibitory concentration (MIC)
Protocol: as §1

[3] = system: Staphylococcus epidermidis; assay: In vitro antibacterial activity test (MIC); assay type: cell-based; details: read-out: minimum inhibitory concentration (MIC)
Protocol: as §1

[4] = system: Staphylococcus aureus; assay: In vitro antibacterial activity test (MIC); assay type: cell-based; details: read-out: minimum inhibitory concentration (MIC)
Protocol: as §1

[5] = system: SPF grade mice; assay: Acute toxicity test by intravenous injection; assay type: in vivo
Source text: A commonly-used acute toxicity test method was used with SPF grade mice by intravenous injection.

[6] = Water solubility of the product; assay type: physicochemical; details: product of Example 6
Protocol: 200 ml of methylene dichloride and 2.0 g of the intermediate prepared according to Example 1 were added to a three-neck flask. 16 ml of triethylamine was added dropwise to the flask to dissolve the solid. 0.6 g of N,N′-diisopropylthiourea was added to the reaction mixture. The mixture was refluxed until the reaction was complete. A solid product appeared in the reaction mixture. The temperature was lowered and the crystallization was carried out for an hour. The solid was filtered and dried under vacuum to yield 1.5 g of the product. It has a pH value of 5.4 and cloudiness of lower than 1 degree (1 g/10 ml water). The product is water soluble.

[7] = Pharmacokinetic comparative experiment, intravenous injection, plasma by HPLC; assay type: in vivo, Beagle dogs
Protocol: The resulting BYS02 obtained from the Examples 6 and 7 as shown above was used to compare with cefathiamidine in the following pharmacokinetic study.
Commercially available cefathiamidine was used as the comparison in the pharmacokinetic study. Using the cross-over controlled trial experimental design, 6 healthy Beagle dogs were divided into two groups: one group of dogs were intravenously injected with 50 mg/kg.bw of the BYS02 and the other group of dogs were injected with 50 mg/kg.bw of cefathiamidine. Blood samples were taken every 12 hours. The drug plasma concentrations were analyzed using HPLC. The drug plasma concentration over the time data were analyzed using MCPKP program.
Six Beagle dogs were provided by Guangzhou Pharmaceutical Research Institute. They were healthy, male, one-year old, and each weighed 8.0±0.1 kg. The dogs were kept in single-dog cages and fed with water and food according to the standards for laboratory animals. One week before the tests, the dogs were examined for hearts, livers, and kidneys, and they were found normal.
BYS02 was prepared according to Example 6 with a purity of 90%. Cefathiamidine was purchased from the market. Heparin sodium, sodium hydrogen phosphate, citric acid, methanol, ethyl acetate and other agents used were analytical-pure. Propionitrile used was chromatographic-pure. Water is pure. High Performance Liquid Chromatography (HPLC) and high-speed refrigerated centrifuges were used in the tests.
Sixteen hours before and 4 hours after the administration, the Beagle dogs were not allowed to eat food but allowed to drink water freely. After intravenously injection with 50 mg/kg.bw of the BYS02 and cefathiamidine, respectively, the two groups of dogs were taken 3 ml of blood samples intravenously at 0, 0.083, 0.17, 0.25, 0.5, 1, 1.5, 2, 3, 4, 6, 9, and 12 hours. The dogs were administrated every other week and blood samples were collected according to the above schedule. The blood samples were added to centrifuge tubes, mixed with heparin, centrifuged at 4000 rpm for 10 minutes, and the serum samples were stored in a refrigerator at −20° C. until they were used.
Hypersil ODS2, C18 column (4.6 mm×150 mm, 5 μm); mobile phase: propionitrile/phosphate buffer (11/89 volume ratio); wavelength: 254 nm; flow rate: 1.0 ml/min; room temperature; sample size: 20 μl.
Preparation of phosphate buffer (pH 7.0): 2.76 g of sodium hydrogen phosphate, 1.29 g of citric acid and 1000 ml of water were mixed well and filtered.
Drug plasma concentration over the time data were analyzed using MCPKP program to calculate the pharmacokinetic parameters. The average values and standard deviations were also calculated.

[8] = system: Hemophilus influenzae; assay: In vitro antibacterial activity test (MIC); assay type: cell-based; details: Haemophilus influenzae, read-out: minimum inhibitory concentration (MIC)
Protocol: as §1

[9] = system: Pseudomonas aeruginosa; assay: In vitro antibacterial activity test (MIC); assay type: cell-based; details: read-out: minimum inhibitory concentration (MIC)
Protocol: as §1

[10] = system: Streptococcus pneumoniae; assay: In vitro antibacterial activity test (MIC); assay type: cell-based; details: read-out: minimum inhibitory concentration (MIC)
Protocol: as §1

[11] = system: Streptococcus hemolyticus group A; assay: In vitro antibacterial activity test (MIC); assay type: cell-based; details: Streptococcus pyogenes, read-out: minimum inhibitory concentration (MIC)
Protocol: as §1

[12] = system: Streptococcus pyogenes; assay: In vitro antibacterial activity test (MIC); assay type: cell-based; details: read-out: minimum inhibitory concentration (MIC)
Protocol: as §1

[13] = system: Viridans streptococcus; assay: In vitro antibacterial activity test (MIC); assay type: cell-based; details: read-out: minimum inhibitory concentration (MIC)
Protocol: as §1

[14] = single intravenous administration
[15] = Beagle dogs, intravenous injection, 50 mg/kg.bw

CO/N=C(\C(=O)N[C@@H]1C(=O)N2C(C(=O)O)=C(CSc3nc(=O)c(=O)[nH]n3C)CS[C@H]12)c1csc(N)n1 [Ceftriaxone, ceftriaxone, reference compound]
MIC [1]: 0.125 µg/mL (≈ 0.225 µM)
MIC [2]: > 512 µg/mL
MIC [3]: 2 to 8 µg/mL (≈ 3.61 to 14.4 µM)
MIC [4]: 32 to 64 µg/mL (≈ 57.7 to 115 µM)

CC(C)N=C(NC(C)C)SCC(=O)NC1C(=O)N2C(C(=O)O)=C(CSc3nc(=O)c(=O)[nH]n3C)CSC12 (stereo not drawn) [Compound II, 3-((1,2,5,6-tetrahydro-2-methyl-5,6-dioxo-1,2,4-triazine-3-ylthio)methyl)-7-[[[[[(1-methylethyl)amino][(1-methylethyl)imino]methyl]thio]acetyl]amino]-8-oxo-5-thia-1-aza-bicyclo[4.2.0]oct-2-ene-2-carboxylic acid]
LD50 [5, 14]: 672 mg/kg.bw
LD50 95% confidence limit [5, 14]: 650-700 mg/kg.bw
mortality ([5]; single intravenous injection of 465 mg/kg.bw): No death
mortality ([5]; single intravenous injection of 930 mg/kg.bw or more): the animals died after 10 seconds of struggling
solubility in water [6]: water soluble
ClB [7, 15]: 7.83 ± 1.5 mL/min/kg
Co [7, 15]: 208.97 ± 61.16 µg/mL
V1 [7, 15]: 0.25 ± 0.07 L/kg
VB [7, 15]: 1.61 ± 0.30 L/kg
t1/2α [7, 15]: 37.8 ± 7.2 min
t1/2β [7, 15]: 131 ± 2.4 min
AUC ([7]; male, dog, in vivo, Beagle dogs, intravenous injection, 50 mg/kg.bw, read-out: AUC): 108 ± 18.2 µg·h/mL
MIC [2]: 4 to 8 µg/mL (≈ 7 to 14 µM)
MIC [8]: 8 to 16 µg/mL (≈ 14 to 28 µM)
MIC [3]: 0.0312 to 2 µg/mL (≈ 0.0546 to 3.5 µM)
MIC [4]: 1 to 4 µg/mL (≈ 1.75 to 7 µM)
MIC [9]: > 512 µg/mL
MIC [10]: 0.125 to 0.5 µg/mL (≈ 0.219 to 0.875 µM)

Cc1nc(SCC2=C(C(=O)O)N3C(=O)C(NC(=O)CSC(=NC(C)C)NC(C)C)C3SC2)sc1CC(=O)O (stereo not drawn) [Compound V, 3-[[[5-(carboxymethyl)-4-methyl-2-thiazolyl]thio]methyl]-7-[[[[[(1-methylethyl)amino][(1-methylethyl)imino]methyl]thio]acetyl]amino]-8-oxo-5-thia-1-aza-bicyclo[4.2.0]oct-2-ene-2-carboxylic acid]
MIC [11]: 0.125 to 1 µg/mL (≈ 0.208 to 1.66 µM)
MIC [1]: 2 to 8 µg/mL (≈ 3.32 to 13.3 µM)
MIC [12]: 0.0312 to 0.5 µg/mL (≈ 0.0518 to 0.831 µM)
MIC [2]: 2 to 8 µg/mL (≈ 3.32 to 13.3 µM)
MIC [8]: > 256 µg/mL
MIC [4]: 0.25 to 2 µg/mL (≈ 0.415 to 3.32 µM)
MIC [13]: 0.125 to 4 µg/mL (≈ 0.208 to 6.65 µM)

CC(=O)OCC1=C(C(=O)O)N2C(=O)[C@@H](NC(=O)CSC(=NC(C)C)NC(C)C)[C@H]2SC1 [cefathiamidine, reference compound]
AUC ([7]; dog, in vivo, iv, 50 mg/kg): 42.25 ± 1.02 µg·h/mL
ClB ([7]; dog, in vivo, iv, 50 mg/kg): 19.7 ± 0.5 mL/min/kg
Co ([7]; dog, in vivo, iv, 50 mg/kg): 90.84 ± 29.71 µg/mL
V1 ([7]; dog, in vivo, iv, 50 mg/kg): 0.59 ± 0.20 L/kg
VB ([7]; dog, in vivo, iv, 50 mg/kg): 1.11 ± 0.07 L/kg
t1/2α ([7]; dog, in vivo, iv, 50 mg/kg): 12.6 ± 8.4 min
t1/2β ([7]; dog, in vivo, iv, 50 mg/kg): 39 ± 1.8 min
